Test results taken from patent US7566718B2, “Amine-linked pyridyl and phenyl substituted piperazine-piperidines with CXCR3 antagonist activity” (Schering Corporation, priority 2005, dated 2009).

Target: T1, human CXCR3 (N-delta 4) (Homo sapiens, UniProt P49682)
T1 construct: CD8 leader (N); Flag tag; expressed in transfected cells; membrane preparation
T1 sequence (P49682 5-368 limits assumed): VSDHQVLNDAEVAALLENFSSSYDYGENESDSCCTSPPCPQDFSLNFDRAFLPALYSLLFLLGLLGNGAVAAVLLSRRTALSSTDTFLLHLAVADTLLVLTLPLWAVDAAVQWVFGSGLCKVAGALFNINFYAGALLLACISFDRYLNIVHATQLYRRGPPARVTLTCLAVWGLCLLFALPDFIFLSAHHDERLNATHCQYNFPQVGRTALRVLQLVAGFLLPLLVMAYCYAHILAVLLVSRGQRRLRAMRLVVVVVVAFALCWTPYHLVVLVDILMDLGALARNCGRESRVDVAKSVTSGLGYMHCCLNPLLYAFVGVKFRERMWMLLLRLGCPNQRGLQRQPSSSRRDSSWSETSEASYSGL
Assay: Human CXCR3 (N-delta 4) scintillation proximity assay (SPA), [125I] IP-10 binding to Ba/F3-hCXCR3 membranes
Conditions: IC50 rating; [125I] IP-10 displacement, human CXCR3; read-out: IC50
Outline: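 Membranes from Ba/F3 cells expressing Flag-tagged hCXCR3 (N-delta 4), 2 μg/point, precoupled to WGA SPA beads. Binding of 25 pM [125I] IP-10 measured with titrated compounds, 3 hr at room temperature, in HEPES buffer with CaCl2, MgCl2, NaCl and 1.0% BSA; bound tracer read by scintillation counting.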

| Compound | IC50 |
| --- | --- |
| CC[C@H]1CN(c2ncc(NC3=NS(=O)(=O)N=C3N(C)C)cc2Cl)CCN1C1CCN(Cc2ccc(F)c(F)c2)CC1 [Compound 272] | > 100 nM |
| CCCCNC1=NS(=O)(=O)N=C1Nc1cnc(N2CCN(C3CCN(Cc4ccc(Cl)cc4C#N)CC3)[C@@H](CC)C2)c(Cl)c1 [Compound 273] | > 100 nM |
| CC[C@H]1CN(c2ncc(NC3=NS(=O)(=O)N=C3NCCNS(C)(=O)=O)cc2Cl)CCN1C1CCN(Cc2ccc(Cl)cc2F)CC1 [Compound 274] | > 100 nM |
| CC[C@H]1CN(c2ncc(NC3=NS(=O)(=O)N=C3NC3CC3)cc2Cl)CCN1C1CCN(C(=O)c2ccc(Cl)cc2O)CC1 [Compound 275] | > 100 nM |
| CC[C@H]1CN(c2ncc(NC3=NS(=O)(=O)N=C3NC(CO)C(N)=O)cc2Cl)CCN1C1CCN(Cc2ccc(Cl)cc2F)CC1 (stereo partly drawn) [Compound 276] | > 100 nM |
| CC[C@H]1CN(c2ncc(NC3=NS(=O)(=O)N=C3Nc3ccccc3O)cc2Cl)CCN1C1CCN(Cc2ccc(Cl)cc2F)CC1 [Compound 277] | > 100 nM |
| CC[C@H]1CN(c2ncc(NC3=NS(=O)(=O)N=C3NCC(C)(C)C)cc2Cl)CCN1C1CCN(Cc2ccc(Cl)cc2C#N)CC1 [Compound 278] | > 100 nM |
| CC[C@H]1CN(c2ncc(NC3=NS(=O)(=O)N=C3NCCN)cc2Cl)CCN1C1CCN(Cc2ccc(Cl)cc2F)CC1 [Compound 279] | > 100 nM |
| CC[C@H]1CN(c2ncc(NC3=NS(=O)(=O)N=C3NCC(=O)O)cc2Cl)CCN1C1CCN(Cc2ccc(Cl)cc2F)CC1 [Compound 280] | > 100 nM |
